We go through 6 molecules from ChEMBL document CHEMBL4350979, “Dehydrodieugenol B derivatives as antiparasitic agents: Synthesis and biological activity against Trypanosoma cruzi” (Eur J Med Chem, 2019).

The subject of series [1] is Trypanosoma cruzi. Put plainly: Antitrypanosomal activity against Trypanosoma cruzi strain Y trypomastigotes maintained in Rhesus monkey […] cells assessed as decrease in trypomastigotes cell viability incubated for 24 hrs by resazurin dye based colorimetric assay. In kind it is functional, organism-based. Background: Resazurin is reduced to fluorescent resorufin, in cell work by metabolically active cells.

Series [2] deals with Trypanosoma cruzi. Put plainly: Antitrypanosomal activity against Trypanosoma cruzi amastigotes infected in BALB/c mouse peritoneal macrophages assessed as decrease in parasitic load with in the cell incubated for 48 hrs by Giemsa staining based light microscopy. The class given is functional, organism-based.
Series [3] in a line: Cytotoxicity against mouse NCTC-929 cells assessed as reduction in cell viability incubated for 48 hrs by MTT assay. Conditions: NCTC-929 (L929) cells. The class given is cell-based. On the technique in general: Formazan colour is commonly taken as a measure of viable cells.
Series [4] in a line: Selectivity index, ratio of CC50 for mouse NCTC-929 cells to IC50 for Trypanosoma cruzi amastigotes infected in BA;B/c mouse peritoneal macrophages. In kind it is toxicity. Conditions: read-out: Ratio CC50/IC50.
Series [5] has as its system Trypanosoma cruzi. As to the kind of experiment: Induction of plasma membrane electric potential depolarization in Trypanosoma cruzi strain Y trypomastigotes at 0.5 mg/ml measured after 60 mins by DiSBAC2(3) dye based flow cytometry. In kind it is functional. (In general: Flow cytometry measures light scatter and fluorescence of single cells or particles in a stream.)

For series [6], the system named is Trypanosoma cruzi. As to the kind of experiment: Induction of mitochondrial membrane depolarization in Trypanosoma cruzi strain Y trypomastigotes assessed as reduction in mitochondrial membrane potential at 50 uM measured after 120 mins by JC-1 probe based flow cytometry. In kind it is functional, organism-based.

The source made the active and inactive calls. No cut-off for these calls is given here. Square brackets hold non-standard residues; d marks the D form. Peptide text beside a SMILES is read from it. * marks the point of attachment. NHCH2CH2OH = OCCN*; For = O=C*

Usually IC50 stands for the midpoint of a concentration-inhibition curve. One may read the CC50 as the concentration at which the toxic effect on the cells reaches its halfway point. Consider `COc1cc(CC(C)O)ccc1Oc1cc(CC(C)O)cc(OC)c1OC` (stereo unspecified), for which the IC50 with Trypanosoma cruzi [1] was greater than 100 µM; in the series on Trypanosoma cruzi [2] it was greater than 30 µM. Moreover, the CC50 at 48 h in series [3] is greater than 200 µM.

`O=C(Cn1ccnc1[N+](=O)[O-])NCc1ccccc1` [BENZNIDAZOLE]: the IC50 with Trypanosoma cruzi [1] is 17.7 µM; in the series on Trypanosoma cruzi [2], 5 µM. Also, the selectivity ratio in series [4] came to 38.1. Besides, the CC50 at 48 h in series [3] came out at 191 µM.

For the molecule `CCCOc1c(OC)cc(CCC)cc1Oc1ccc(CCC)cc1OC`, the IC50 is greater than 100 µM with Trypanosoma cruzi [1] and greater than 30 µM in the series on Trypanosoma cruzi [2]. In addition, the CC50 at 48 h in series [3] is greater than 200 µM.

`CCCc1ccc(Oc2cc(CCC)cc(OC)c2OC)c(OC)c1`: the IC50 in the series on Trypanosoma cruzi [1] was greater than 100 µM; with Trypanosoma cruzi [2], 13.3 µM. Also, the selectivity ratio in series [4] is greater than 15.4. For the same molecule, in series [3], the CC50 at 48 h is greater than 200 µM.

In turn, `CC(C)C[C@@H](NC(=O)[C@H](C)NC(=O)CNC(=O)[C@@H](NC=O)C(C)C)C(=O)N[C@@H](C)C(=O)N[C@@H](C(=O)N[C@H](C(=O)N[C@@H](C(=O)N[C@@H](Cc1c[nH]c2ccccc12)C(=O)N[C@H](CC(C)C)C(=O)N[C@@H](Cc1c[nH]c2ccccc12)C(=O)N[C@H](CC(C)C)C(=O)N[C@@H](Cc1c[nH]c2ccccc12)C(=O)N[C@H](CC(C)C)C(=O)N[C@@H](Cc1c[nH]c2ccccc12)C(=O)NCCO)C(C)C)C(C)C)C(C)C` [GRAMICIDIN D] (For-VGA[dL]A[dV]V[dV]W[dL]W[dL]W[dL]W-NHCH2CH2OH) returned an Activity in the series on Trypanosoma cruzi [5] of 100%.

For `N#CC(C#N)=NNc1cccc(Cl)c1`, the inhibition result with Trypanosoma cruzi [6] is “Active”.
